Our source for the IC50 values is US20240018122A1, “PYRIDAZINYL AMINO DERIVATIVES AS ALK5 INHIBITORS” (CHIESI FARMACEUTICI S.P.A., priority 2020, published 2024).

Structures are written as SMILES. A value given as a limit tells only on which side of the number the result lay.

For one test, the target named is human ALK5 (Homo sapiens (Human), UniProt P36897). The test is described as follows: ADP-GLO Kinases assay, inhibitory activity on ALK5.
human ALK5, sequence (P36897 80-503 limits assumed): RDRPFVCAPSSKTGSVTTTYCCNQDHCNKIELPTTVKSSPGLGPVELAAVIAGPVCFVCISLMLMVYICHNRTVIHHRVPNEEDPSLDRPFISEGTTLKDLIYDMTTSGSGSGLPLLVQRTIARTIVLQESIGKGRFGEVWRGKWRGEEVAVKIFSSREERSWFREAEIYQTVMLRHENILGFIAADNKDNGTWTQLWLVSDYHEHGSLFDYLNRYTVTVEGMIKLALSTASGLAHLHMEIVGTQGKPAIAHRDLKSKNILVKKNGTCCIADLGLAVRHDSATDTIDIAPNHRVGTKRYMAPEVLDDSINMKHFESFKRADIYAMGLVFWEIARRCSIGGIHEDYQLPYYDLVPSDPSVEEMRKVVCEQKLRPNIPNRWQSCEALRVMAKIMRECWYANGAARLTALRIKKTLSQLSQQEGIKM
Conditions: not given
It counts as biochemical.
Consider `Cc1nnc(-c2cc(Cl)ccc2F)cc1Nc1ccnc2cc(OC(=O)N3CC4CC3CN4C)ccc12` (stereo not drawn) [Example 128, 4-{[6-(5-Chloro-2-Fluorophenyl)-3-Methylpyridazin-4-Yl]Amino}Quinolin-7-Yl 5-Methyl-2,5-Diazabicyclo[2.2.1]Heptane-2-Carboxylate], for which the IC50 was below 1 nM.

Still in this test, the particulars now being: purified recombinant human ALK5 2.6 nM, TGFβ1 peptide substrate, 25° C, 150 min incubation, ADP-Glo detection; read-out: ALK5 IC50.
As for `CN1CCN(CCC(=O)Nc2cc(Nc3cc(-c4cc(Cl)ccc4F)nnc3C3CC3)ccn2)CC1` [Example 173], the IC50 was below 1 nM. On to `COC(=O)N(C)CCN1CCN(CC(=O)Nc2cc(Nc3cc(-c4cc(Cl)ccc4F)nnc3C)ccn2)CC1` [Example 107, Methyl N-[2-(4-{[(4-{[6-(5-Chloro-2-Fluorophenyl)-3-Methylpyridazin-4-Yl]Amino}Pyridin-2-Yl)Carbamoyl]Methyl}Piperazin-1-Yl)Ethyl]-N-Methylcarbamate], for which the IC50 is below 1 nM. Still for that read-out and setting: for `O=C(Oc1ccc2c(Nc3cnnc(-c4cc(Cl)ccc4F)c3)ccnc2c1)N1CCC2(CCNCC2)C1` [Example 112, 4-{[6-(5-Chloro-2-Fluorophenyl)Pyridazin-4-Yl]Amino}Quinolin-7-Yl 2,8-Diazaspiro[4.5]Decane-2-Carboxylate] the value was below 1 nM. Same read-out and setting: the same measure for `CNCCN1CCN(CCC(=O)Nc2cc(Nc3cc(-c4cc(Cl)ccc4F)nnc3C)ccn2)CC1` [Example 104, N-(4-{[6-(5-Chloro-2-Fluorophenyl)-3-Methylpyridazin-4-Yl]Amino}Pyridin-2-Yl)-3-{4-[2-(Methylamino)Ethyl]Piperazin-1-Yl}Propanamide]: below 1 nM; for `Cc1nnc(-c2cc(Cl)ccc2F)cc1Nc1ccnc(NC(=O)CCN2CCNC(CC(=O)O)C2)c1` (stereo not drawn) [Example 116, 2-(4-{2-[(4-{[6-(5-chloro-2-fluorophenyl)-3-methylpyridazin-4-yl]amino}pyridin-2-yl)carbamoyl]ethyl}piperazin-2-yl)acetic acid]: below 1 nM; for `CS(=O)(=O)N1CCN(CCOc2ccc3c(Nc4cnnc(-c5cc(Cl)ccc5F)c4)ccnc3c2)CC1` [Example 36, N-[6-(5-Chloro-2-Fluorophenyl)Pyridazin-4-Yl]-7-[2-(4-Methanesulfonylpiperazin-1-Yl)Ethoxy]Quinolin-4-Amine]: below 1 nM. Still for that read-out and setting: for `CN(C)CCN1CCN(C(=O)Oc2ccc3c(Nc4cnnc(-c5cc(Cl)ccc5F)c4)ccnc3c2)CC1` [Example 61, 4-{[6-(5-Chloro-2-Fluorophenyl)Pyridazin-4-Yl]Amino}Quinolin-7-Yl 4-[2-(Dimethylamino)Ethyl]Piperazine-1-Carboxylate] the value was below 1 nM; for `COC(=O)C1CN(C)CCN1CCC(=O)Nc1cc(Nc2cc(-c3cc(Cl)ccc3F)nnc2C)ccn1` (stereo not drawn) [Example 99, Methyl 1-{2-[(4-{[6-(5-Chloro-2-Fluorophenyl)-3-Methylpyridazin-4-Yl]Amino}Pyridin-2-Yl)Carbamoyl]Ethyl}-4-Methylpiperazine-2-Carboxylate], below 1 nM; for `CN1CCN(CCC(=O)Nc2cc(Nc3cnnc(-c4cc(Cl)ccc4F)c3)ccn2)CC1=O` [Example 24, N-(4-{[6-(5-Chloro-2-Fluorophenyl)Pyridazin-4-Yl]Amino}Pyridin-2-Yl)-3-(4-Methyl-3-Oxopiperazin-1-Yl)Propanamide], 1 to 5 nM. Take `Cc1nnc(-c2cc(Cl)ccc2F)cc1Nc1ccnc(NC(=O)CCN2CC3CC2CN3C)c1` (stereo not drawn) [Example 121, N-(4-{[6-(5-Chloro-2-Fluorophenyl)-3-Methylpyridazin-4-Yl]Amino}Pyridin-2-Yl)-3-{5-Methyl-2,5-Diazabicyclo[2.2.1]Heptan-2-Yl}Propanamide]: the IC50 is below 1 nM. Same read-out and setting: the same measure for `COC(=O)c1cc2c(Nc3cnnc(-c4cc(Cl)ccc4F)c3)ccnc2cc1OCCN1CCN(C)CC1` [Example 171, Methyl 4-{[6-(5-Chloro-2-Fluorophenyl)Pyridazin-4-Yl]Amino}-7-[2-(4-Methylpiperazin-1-Yl)Ethoxy]Quinoline-6-Carboxylate]: below 1 nM.

`Cc1nnc(-c2cc(Cl)ccc2F)cc1Nc1ccnc(NC(=O)CCN2CCNCC2)c1` [Example 74, N-(4-{[6-(5-chloro-2-fluorophenyl)-3-methylpyridazin-4-yl]amino}pyridin-2-yl)-3-(piperazin-1-yl)propanamide]: the IC50 was below 1 nM. As to `Cc1nnc(-c2cc(Cl)ccc2F)cc1Nc1ccnc(NC(=O)C[N+]2([O-])CCOCC2)c1` [Example 123, 4-{[(4-{[6-(5-Chloro-2-Fluorophenyl)-3-Methylpyridazin-4-Yl]Amino}Pyridin-2-Yl)Carbamoyl]Methyl}Morpholin-4-Ium-4-Olate], the IC50 was below 1 nM.

Take `Cc1nnc(-c2cc(Cl)ccc2F)cc1Nc1ccnc2cc(OCCN3CCN(C)CC3)ccc12` [Example 48, N-[6-(5-Chloro-2-Fluorophenyl)-3-Methylpyridazin-4-Yl]-7-[2-(4-Methylpiperazin-1-Yl)Ethoxy]Quinolin-4-Amine]: the IC50 is below 1 nM.
